According to PubChem BioAssay (NCI):
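Test compounds were applied to cells in 96-well plates for 48 hours at 5 doses. TGI denotes the concentration required for complete inhibition of growth.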

Tests used:
Test in all cases: NCI anticancer screen, dose series, 48 h
[1] = system: CCRF-CEM leukemia
[2] = system: 786-0 renal
[3] = system: T-47D breast
[4] = system: M14 melanoma
[5] = system: NCI/ADR-RES ovarian
[6] = system: HCC-2998 colon
[7] = system: EKVX NSCLC
[8] = system: NCI-H23 lung
[9] = system: SNB-75 CNS
[10] = system: HCT-116 colon
[11] = system: MOLT-4 leukemia

Row | Structure (SMILES) | TGI [1] [µM] | TGI [2] [µM] | TGI [3] [µM] | TGI [4] [µM] | TGI [5] [µM] | TGI [6] [µM] | TGI [7] [µM] | TGI [8] [µM] | TGI [9] [µM] | TGI [10] [µM] | TGI [11] [µM]
1 | CC1(C)O[C@H]2OC(CO)C(OS(C)(=O)=O)[C@H]2O1 (some centres undefined) | > 100 | > 100 | > 100 | > 100 | > 100 | > 100 | > 100 | > 100 | > 100 | > 100 | 
2 | O=C1C2=C(CCCCC2)C2CCCCC12O (centres undefined) | > 100 | > 100 |  | > 100 |  | > 100 | > 100 | > 100 | > 100 | > 100 | > 100
3 | Cc1ccc(S(=O)(=O)C2c3nc4ccccc4cc3-c3nc4ccccc4nc32)cc1 (centres undefined) | > 100 | > 100 |  | > 100 |  | > 100 | > 100 | > 100 | > 100 | > 100 | > 100
4 | CCC/C(Cl)=N\OC(=O)Nc1ccc(F)c([N+](=O)[O-])c1 | > 100 | 40 |  | 30.4 | 36.6 | 31.3 | 29.9 | 28.1 | 33 | > 100 | 11.2
5 | N#Cc1ccc(Nc2cnc3ccc(N)cc3n2)cc1 | > 100 | > 100 |  | > 100 |  | > 100 | > 100 | > 100 | > 100 | > 100 | > 100
6 | CCCCCCCC(=O)OCC(C[As](=O)(O)O)OC(=O)CCCCCCC (centres undefined) | 28 | 30.9 |  | 28.5 |  | 31.7 | 33.8 | 28.7 | 31.1 | 30.3 | 51.9
7 | CCCCNC(=S)c1ccc(OC(=O)Nc2ccc(Cl)cc2)cc1 | > 100 | > 100 | > 100 | > 100 | > 100 | > 100 | > 100 | > 100 |  | > 100 | > 100
8 | CC1(C)OCC(COC(=O)NCn2cc(-c3ccccc3)nn2)O1 (centres undefined) | > 100 | > 100 |  | > 100 | > 100 | > 100 | > 100 | > 100 | > 100 | > 100 | > 100
9 | COc1ccc(-c2nnc(-c3ccncc3)o2)cc1 | > 100 | > 100 | > 100 | > 100 | > 100 |  | > 100 | > 100 | > 100 | > 100 | > 100
10 | CCOC(=O)c1nc2cc(C(F)(F)F)ccc2nc1Nc1ccc(F)cc1 | 66.2 | > 100 | > 100 | > 100 | > 100 | > 100 | > 100 | > 100 | > 100 | > 100 | 
11 | CC(=O)Nc1ccc(-c2nnc(SCC(=O)Nc3cccc([N+](=O)[O-])c3)o2)cc1 | > 100 | 40.6 |  | 29.7 |  |  |  | 21.2 | 32.9 | 27.4 | > 100
12 | COC(=O)c1c(O)ccc2c1c1c(n2Cc2ccccc2OC)C(=O)c2ccccc2C1 | 81.2 | > 100 | > 100 | > 100 | > 100 |  |  | > 100 | > 100 | > 100 | > 100
13 | CCCCCCCCCCCCCCCCCCOc1ccc(/C=C/C2=[N+](CCCl)CCO2)cc1 | > 100 | > 100 | > 100 | > 100 | > 100 |  | > 100 |  | > 100 | > 100 | > 100
14 | CC(=O)NC(C)c1ccc(N=NN2CCCC2)cc1 (centres undefined) | > 100 | > 100 | > 100 | > 100 | > 100 | > 100 | > 100 | > 100 | > 100 | > 100 | 
15 | COc1ccc2c(c1)CC1(O)COc3cc(OC)ccc3C1O2 (centres undefined) | > 100 | > 100 | > 100 | > 100 | > 100 | > 100 | > 100 | > 100 |  | > 100 | > 100
16 | CN(C)CCCNc1cnc2cc3ccccc3cc2n1 | 88.1 | > 100 |  | 50.5 |  | 35.1 | > 100 | > 100 | 70.6 | 99.3 | 81.7
17 | COc1ccc(/C=N\NC(=O)Nc2cccc3ccccc23)cc1 | > 100 | 46.6 | 38.2 | > 100 | > 100 | > 100 | 95.2 | > 100 | 34.5 | > 100 | 
18 | Cc1ccc(C(=O)C2=CN=C3C(=O)N(c4ccccc4)N(C)C3(C)C2=N)cc1 (centres undefined) | > 100 | > 100 |  | > 100 | > 100 | > 100 | > 100 | > 100 | > 100 | > 100 | > 100
19 | CC(C)(C)c1cc(/C=C/C(=O)CC(=O)/C=C/c2cc(C(C)(C)C)c(O)c(C(C)(C)C)c2)cc(C(C)(C)C)c1O | > 50 | > 50 |  | > 50 | > 50 |  | > 50 | > 50 | > 50 | > 50 | 
20 | CNC(=O)c1ccccc1[S+]1c2cccc3cccc(c23)C(=O)N1C (centres undefined) | > 100 | > 100 | > 100 | > 100 | > 100 |  | > 100 | > 100 |  | > 100 | > 100
21 | COc1cccc2c1-c1c(OC)cccc1SS2 |  | 36.2 |  | > 100 | > 100 | 49.3 | 31.4 | 72.8 |  | 40.4 | 38.1
22 | C=CCCC(On1c(-c2ccc(Cl)cc2)csc1=S)c1ccccc1 (centres undefined) | > 100 | > 100 | > 100 | > 100 | > 100 |  | > 100 | > 100 |  | > 100 | > 100
